Counter-ions that a name gives are not always drawn.
Tests used:
[1] = system: gastric secretion in the rat; test: Gastric secretion in the rat; type: in vivo, Sprague-Dawley rats
Protocol: (§1) The anitulcer activity of these derivatives was evaluated on ulcers induced by the administration of ethanol, hydrochloric acid and sodium hydroxide in the rat, also on gastric ulcers induced by aspirin in the rat, and on their influence on gastric secretions in the rat.
(5) Gastric secretion in the rat:
Sprague-Dawley rats of both sexes are used for this test. The gastric secretion is rated according to the method described by H. Shay et al in Gastroenterology 5,43 (1945) the disclosure of which is incorporated herein by reference.

[2] = system: HCl induced ulcers in the rat; test: Hydrochloric acid induced ulcers in the rat; type: in vivo
Protocol: as §1
(2) Hydrochloric acid induced ulcers in the rat:
The method used for this test is that described by A. Robert et al, in Gastroenterology, 77,433, (1979), the disclosure of which is incorporated herein by reference.

[3] = system: ethanol induced ulcers in the rat; test: Ethanol induced ulcers in the rat; type: in vivo
Protocol: as §1
(1) Ethanol induced ulcers in the rat:
The method used is that described by A. Robert et al, in Gastroenterology 77,433 (1979), the disclosure of which is incorporated herein by reference.

peptic ulcer = conditions: previous finding; cited from earlier work
[4] = system: NaOH induced ulcers in the rat; test: Sodium hydroxide induced ulcers in the rat; type: in vivo
Protocol: as §1
(3) Sodium hydroxide induced ulcers in the rat:
Also this test is performed in accordance with the method described by A. Robert et al, in Gastroenterology, 77,433 (1979), the disclosure of which is incorporated herein by reference.

[5] = system: aspirin-induced ulcers in the rat; test: Aspirin induced gastric ulcers in the rat; type: in vivo; conditions: 200 mg/kg of drug
Protocol: as §1
(4) Aspirin induced gastric ulcers in the rat:
For carrying out this test, the method described by H. A. Carmichael, L. M. Nelson, R. I. Russel in Gastroenterology 74, 1229 (1978) is used, the disclosure of which is incorporated herein by reference.

[6] = system: gastric depletion in the rat; test: Gastric depletion in the rat; type: in vivo
Protocol: Gastric depletion in the rat.
Rats of both sexes and mean weight of 180-200 g are used. The animals are subjected to fasting for 24 hours but have free access to water up to 3 hours prior to the test.
Preparation of phenyl red solution: 50 mg of phenyl red is mixed with 100 ml of a 1.5% methyl cellulose solution and shaken for 5 hours.
1.5 ml per rat is administered irrespective of weight.
The rats are sacrificed by cervix translocation: the stomach is taken out after ligaturing the cardias and pilorus.
The entire stomach and contents are placed in the container of a homogenizer with 50 ml of 0.1N NaOH. They are homogenized for 2 minutes at a maximum velocity. They homogenate is transferred to a test-tube and left to settle for one hour.
5 ml of the supernatant is taken out and put into a centrifuge tube and mixed with 0.5 ml of 20% (w/v) trichloroacetic acid. The tube is centrifuged at 2500 rpm for 20 min. The entire supernatant is taken and mixed with 4 ml of 0.4N NaOH, and its absorbance is measured at 560λ.
Gastric depletion is calculated according to the following formula:
(1-sample absorbance/standard absorbance)×100
As "standard absorbance" is considered the mean value of spectophotometric measurement of 4 animals sacrificed immediately after administering phenyl red.

CCCCCCC1CCC(N)C1CCCCCCC(=O)O (stereo not shown) [drawing 32]
Percent inhibition of gastric secretion in the rat ([1]; 12.5 mg/kg, 2 h after treatment): 38% | Percent inhibition of gastric secretion in the rat ([1]; 25 mg/kg, 2 h after treatment): 87% | Percent inhibition of gastric secretion in the rat ([1]; 50 mg/kg, 2 h after treatment): 88% | Percent inhibition of gastric secretion in the rat ([1]; 50 mg/kg, 4 h after treatment): 68% | Percent inhibition of gastric secretion in the rat ([1]; 100 mg/kg, 2 h after treatment): 77% | Percent inhibition of gastric secretion in the rat ([1]; 100 mg/kg, 4 h after treatment): 89%

CCCCCCC1CCC(NC)C1CCCCCCC(=O)O (stereo not shown) [drawing 15]
Percent inhibition of HCl induced ulcers in the rat ([2]; 25 mg/kg): 40% | Percent inhibition of HCl induced ulcers in the rat ([2]; 50 mg/kg): 49% | Percent inhibition of HCl induced ulcers in the rat ([2]; 100 mg/kg): 66%

CCCCCCC1CCC(N)C1CCCCCCC(=O)O (stereo not shown) [drawing 8]
Percent inhibition of ethanol induced ulcers in the rat ([3]; 2.5 mg/kg): 40% | Percent inhibition of ethanol induced ulcers in the rat ([3]; 5 mg/kg): 50% | Percent inhibition of ethanol induced ulcers in the rat ([3]; 10 mg/kg): 70% | Percent inhibition of ethanol induced ulcers in the rat ([3]; 25 mg/kg): 67% | Percent inhibition of ethanol induced ulcers in the rat ([3]; 50 mg/kg): 88%

CCCCCCC1CCC(O)C1CCCCCCC(=O)O (stereo not shown) [Rosaprostol, 9-hydroxy-91,20-bis-nor-prostanoic acid sodium salt]
antiulcer properties of the natural prostaglandins / other prostaglandin properties (peptic ulcer): maintaining the antiulcer properties of the natural prostaglandins, completely loses the others

CCCCCCC1CCC(NC(C)=O)C1CCCCCCC(=O)O (stereo not shown) [drawing 36]
Percent inhibition of gastric secretion in the rat ([1]; 25 mg/kg, 2 h after treatment): 51% | Percent inhibition of gastric secretion in the rat ([1]; 25 mg/kg, 4 h after treatment): 0% | Percent inhibition of gastric secretion in the rat ([1]; 50 mg/kg, 2 h after treatment): 48% | Percent inhibition of gastric secretion in the rat ([1]; 50 mg/kg, 4 h after treatment): 12% | Percent inhibition of gastric secretion in the rat ([1]; 100 mg/kg, 2 h after treatment): 70% | Percent inhibition of gastric secretion in the rat ([1]; 100 mg/kg, 4 h after treatment): 59%

CCCCCCC1CCC(N(C)C)C1CCCCCCC(=O)O (stereo not shown) [drawing 22]
Percent inhibition of NaOH induced ulcers in the rat ([4]; 12.5 mg/kg): 52% | Percent inhibition of NaOH induced ulcers in the rat ([4]; 25 mg/kg): 63% | Percent inhibition of NaOH induced ulcers in the rat ([4]; 50 mg/kg): 74%

CCCCCCC1CCC(N)C1CCCCCCC(=O)O (stereo not shown) [drawing 26]
Percent inhibition of aspirin-induced ulcers in the rat [5]: 72%

CCCCCCC1CCC(N(C)C)C1CCCCCCC(=O)O (stereo not shown) [drawing 10]
Percent inhibition of ethanol induced ulcers in the rat ([3]; 2.5 mg/kg): 24% | Percent inhibition of ethanol induced ulcers in the rat ([3]; 5 mg/kg): 43% | Percent inhibition of ethanol induced ulcers in the rat ([3]; 10 mg/kg): 62% | Percent inhibition of ethanol induced ulcers in the rat ([3]; 50 mg/kg): 97% | Percent inhibition of ethanol induced ulcers in the rat ([3]; 100 mg/kg): 91%

CCCCCCC1CCC(NC(C)C)C1CCCCCCC(=O)O (stereo not shown) [drawing 41]
inhibition values of gastric depletion ([6]; 50 mg/kg): 14%

CCCCCCC1CCC(NC)C1CCCCCCC(=O)O (stereo not shown) [drawing 33]
Percent inhibition of gastric secretion in the rat ([1]; 25 mg/kg, 2 h after treatment): 0% | Percent inhibition of gastric secretion in the rat ([1]; 25 mg/kg, 4 h after treatment): 40% | Percent inhibition of gastric secretion in the rat ([1]; 50 mg/kg, 2 h after treatment): 54% | Percent inhibition of gastric secretion in the rat ([1]; 50 mg/kg, 4 h after treatment): 49% | Percent inhibition of gastric secretion in the rat ([1]; 100 mg/kg, 2 h after treatment): 79% | Percent inhibition of gastric secretion in the rat ([1]; 100 mg/kg, 4 h after treatment): 66%

CCCCCCC1CCC(NC)C1CCCCCCC(=O)O (stereo not shown) [drawing 27]
Percent inhibition of aspirin-induced ulcers in the rat [5]: 87%

CCCCCCC1CCC(N)C1CCCCCCC(=O)O (stereo not shown) [drawing 20]
Percent inhibition of NaOH induced ulcers in the rat ([4]; 5 mg/kg): 37% | Percent inhibition of NaOH induced ulcers in the rat ([4]; 10 mg/kg): 54% | Percent inhibition of NaOH induced ulcers in the rat ([4]; 25 mg/kg): 80%

CCCCCCC1CCC(N(C)C)C1CCCCCCC(=O)O (stereo not shown) [drawing 34]
Percent inhibition of gastric secretion in the rat ([1]; 25 mg/kg, 2 h after treatment): 74% | Percent inhibition of gastric secretion in the rat ([1]; 25 mg/kg, 4 h after treatment): 23% | Percent inhibition of gastric secretion in the rat ([1]; 50 mg/kg, 2 h after treatment): 75% | Percent inhibition of gastric secretion in the rat ([1]; 50 mg/kg, 4 h after treatment): 55% | Percent inhibition of gastric secretion in the rat ([1]; 100 mg/kg, 2 h after treatment): 82% | Percent inhibition of gastric secretion in the rat ([1]; 100 mg/kg, 4 h after treatment): 63%

CCCCCCC1CCC(N(C)C)C1CCCCCCC(=O)O (stereo not shown) [drawing 40]
inhibition values of gastric depletion ([6]; 50 mg/kg): 55%

CCCCCCC1CCC(NC(C)C)C1CCCCCCC(=O)O (stereo not shown) [drawing 29]
Percent inhibition of aspirin-induced ulcers in the rat [5]: 63%

CCCCCCC1CCC(N(C)C)C1CCCCCCC(=O)O (stereo not shown) [drawing 28]
Percent inhibition of aspirin-induced ulcers in the rat [5]: 88%

CCCCCCC1CCC(NC)C1CCCCCCC(=O)O (stereo not shown) [drawing 9]
Percent inhibition of ethanol induced ulcers in the rat ([3]; 5 mg/kg): 44% | Percent inhibition of ethanol induced ulcers in the rat ([3]; 10 mg/kg): 67% | Percent inhibition of ethanol induced ulcers in the rat ([3]; 25 mg/kg): 86% | Percent inhibition of ethanol induced ulcers in the rat ([3]; 50 mg/kg): 91% | Percent inhibition of ethanol induced ulcers in the rat ([3]; 100 mg/kg): 91%

CCCCCCC1CCC(N)C1CCCCCCC(=O)O (stereo not shown) [drawing 38]
inhibition values of gastric depletion ([6]; 25 mg/kg): 18% | inhibition values of gastric depletion ([6]; 50 mg/kg): 80% | inhibition values of gastric depletion ([6]; 100 mg/kg): 80%

— patent US4816472A, “Derivatives of 19,20-Bis-nor-prostanoic acid with antiulcer and anorectic activity, process for their preparation and pharmaceutical compositions thereof” (Istituto Biochemico Italiano Giovanni Lorenzini S.p.A., priority 1985, dated 1989)
